# Assay results from patent US20050222200A1, “AMIDE DERIVATIVES AS ION CHANNEL LIGANDS AND PHARMACEUTICAL COMPOSITIONS AND METHODS OF USING THE SAME” (Renovis, Inc., priority 2003, published 2005).
# Target: T1, VR1 (Homo sapiens, UniProt Q8NER1)
# T1 construct: expressed in transfected cells; host or cells: 293 cells ("293 neurons" [sic])
# Assay: High throughput calcium imaging assay of VR1 antagonists (Fura2, Flex Station, 96 well); also: test concentration or dose not given here
# Format: cell-based
# Settings: Table 1 activity class
# T1 sequence (Q8NER1 whole entry, species assumed): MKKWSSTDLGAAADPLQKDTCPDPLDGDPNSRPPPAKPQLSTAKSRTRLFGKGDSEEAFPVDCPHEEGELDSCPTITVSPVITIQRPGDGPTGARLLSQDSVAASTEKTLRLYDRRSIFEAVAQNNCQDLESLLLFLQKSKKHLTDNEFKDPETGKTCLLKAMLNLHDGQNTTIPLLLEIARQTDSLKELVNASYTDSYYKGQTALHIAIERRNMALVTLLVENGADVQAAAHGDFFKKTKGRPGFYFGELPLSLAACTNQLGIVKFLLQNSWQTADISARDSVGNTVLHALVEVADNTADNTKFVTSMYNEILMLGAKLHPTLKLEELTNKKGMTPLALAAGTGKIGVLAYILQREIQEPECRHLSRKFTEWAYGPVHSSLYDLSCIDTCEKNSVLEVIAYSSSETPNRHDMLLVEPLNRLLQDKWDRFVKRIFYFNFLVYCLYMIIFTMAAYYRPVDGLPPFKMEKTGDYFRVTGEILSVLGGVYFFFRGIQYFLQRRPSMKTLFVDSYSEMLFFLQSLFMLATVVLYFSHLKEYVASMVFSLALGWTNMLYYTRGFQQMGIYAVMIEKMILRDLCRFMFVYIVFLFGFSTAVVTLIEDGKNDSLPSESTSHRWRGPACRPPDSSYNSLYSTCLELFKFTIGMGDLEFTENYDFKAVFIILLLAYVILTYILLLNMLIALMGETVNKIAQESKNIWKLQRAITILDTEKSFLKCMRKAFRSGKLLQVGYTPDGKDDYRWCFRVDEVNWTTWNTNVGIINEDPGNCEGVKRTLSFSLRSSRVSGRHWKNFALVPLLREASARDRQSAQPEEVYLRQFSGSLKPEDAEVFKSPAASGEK
row,SMILES,inhibition of calcium ion influx induced by capsaicin stimulation
1,Cc1nccc(NC(=O)c2ccc(/C=C/C(C)(C)C)cc2)n1 [Compound 77],+ (compound exhibited 0-25% inhibition of calcium ion influx induced by capsaicin stimulation)
2,CC(C)(C)/C=C/c1ccc(C(=O)Nc2ccc3ncccc3c2)cc1 [Compound 78],++++ (compound exhibited 75% or greater inhibition of calcium ion influx induced by capsaicin stimulation)
3,CC(C)(C)/C=C/c1ccc(C(=O)NCc2cccnc2)cc1 [Compound 80],+ (compound exhibited 0-25% inhibition of calcium ion influx induced by capsaicin stimulation)
4,CN(C)c1ccc(CNC(=O)c2ccc(/C=C/C(C)(C)C)cc2)cc1 [Compound 81],+ (compound exhibited 0-25% inhibition of calcium ion influx induced by capsaicin stimulation)
5,COc1ccccc1CNC(=O)c1ccc(/C=C/C(C)C)cc1 [Compound 87],+ (compound exhibited 0-25% inhibition of calcium ion influx induced by capsaicin stimulation)
6,CC(C)/C=C/c1ccc(C(=O)NCc2ccco2)cc1 [Compound 88],++ (compound exhibited 25-50% inhibition of calcium ion influx induced by capsaicin stimulation)
7,CC(C)/C=C/c1ccc(C(=O)NCc2ccncc2)cc1 [Compound 93],+ (compound exhibited 0-25% inhibition of calcium ion influx induced by capsaicin stimulation)
8,CC(C)/C=C/c1ccc(C(=O)NC(c2ccccc2)c2ccccc2)cc1 [Compound 95],++ (compound exhibited 25-50% inhibition of calcium ion influx induced by capsaicin stimulation)
9,CC(C)/C=C/c1ccc(C(=O)NCCc2ccccc2Cl)cc1 [Compound 98],+ (compound exhibited 0-25% inhibition of calcium ion influx induced by capsaicin stimulation)
10,CC(C)/C=C/c1ccc(C(=O)Nc2ccncc2)cc1 [Compound 105],++ (compound exhibited 25-50% inhibition of calcium ion influx induced by capsaicin stimulation)
11,CC(C)/C=C/c1ccc(C(=O)Nc2cccnc2)cc1 [Compound 106],++ (compound exhibited 25-50% inhibition of calcium ion influx induced by capsaicin stimulation)
12,CC(C)/C=C/c1ccc(C(=O)NCC2CCCO2)cc1 (centres unmarked) [Compound 109],++ (compound exhibited 25-50% inhibition of calcium ion influx induced by capsaicin stimulation)
13,CC(C)/C=C/c1ccc(C(=O)NCc2ccc3c(c2)OCO3)cc1 [Compound 111],+++ (compound exhibited 50-75% inhibition of calcium ion influx induced by capsaicin stimulation)
14,CC(C)/C=C/c1ccc(C(=O)NCCN2CCOCC2)cc1 [Compound 112],++ (compound exhibited 25-50% inhibition of calcium ion influx induced by capsaicin stimulation)
15,CC(C)/C=C/c1ccc(C(=O)NCCc2ccc(S(N)(=O)=O)cc2)cc1 [Compound 116],+ (compound exhibited 0-25% inhibition of calcium ion influx induced by capsaicin stimulation)
16,COc1cc(CNC(=O)c2ccc(/C=C/C(C)C)cc2)cc(OC)c1OC [Compound 117],+ (compound exhibited 0-25% inhibition of calcium ion influx induced by capsaicin stimulation)
17,CC(C)/C=C/c1ccc(C(=O)NCc2ccccn2)cc1 [Compound 120],+ (compound exhibited 0-25% inhibition of calcium ion influx induced by capsaicin stimulation)
18,COc1ccc(CCNC(=O)c2ccc(/C=C/C(C)C)cc2)cc1OC [Compound 121],+++ (compound exhibited 50-75% inhibition of calcium ion influx induced by capsaicin stimulation)

row,SMILES,inhibition of calcium ion influx induced by capsaicin stimulation
1,CC(C)/C=C/c1ccc(C(=O)NCCc2c[nH]c3ccccc23)cc1 [Compound 123],+ (compound exhibited 0-25% inhibition of calcium ion influx induced by capsaicin stimulation)
2,CC(C)/C=C/c1ccc(C(=O)NCCN2CCNCC2)cc1 [Compound 125],++++ (compound exhibited 75% or greater inhibition of calcium ion influx induced by capsaicin stimulation)
3,CCNC(=O)c1ccc(/C=C/C(C)C)cc1 [Compound 126],++ (compound exhibited 25-50% inhibition of calcium ion influx induced by capsaicin stimulation)
4,CC(C)/C=C/c1ccc(C(=O)NCc2cccs2)cc1 [Compound 127],++ (compound exhibited 25-50% inhibition of calcium ion influx induced by capsaicin stimulation)
5,CCN(CC)c1ccc(NC(=O)c2ccc(/C=C/C(C)C)cc2)cc1 [Compound 130],+++ (compound exhibited 50-75% inhibition of calcium ion influx induced by capsaicin stimulation)
6,COc1ccccc1NC(=O)c1ccc(/C=C/C(C)C)cc1 [Compound 132],+ (compound exhibited 0-25% inhibition of calcium ion influx induced by capsaicin stimulation)
7,CC(C)/C=C/c1ccc(C(=O)Nc2ccccc2Cl)cc1 [Compound 136],+ (compound exhibited 0-25% inhibition of calcium ion influx induced by capsaicin stimulation)
8,CC(C)/C=C/c1ccc(C(=O)NCC(C)C)cc1 [Compound 139],+ (compound exhibited 0-25% inhibition of calcium ion influx induced by capsaicin stimulation)
9,COc1ccc(CNC(=O)c2ccc(/C=C/C(C)C)cc2)cc1OC [Compound 142],+ (compound exhibited 0-25% inhibition of calcium ion influx induced by capsaicin stimulation)
10,CC(C)/C=C/c1ccc(C(=O)NCc2cccc(F)c2)cc1 [Compound 143],+ (compound exhibited 0-25% inhibition of calcium ion influx induced by capsaicin stimulation)
11,COc1ccc(NC(=O)c2ccc(/C=C/C(C)C)cc2)cc1Cl [Compound 145],+ (compound exhibited 0-25% inhibition of calcium ion influx induced by capsaicin stimulation)
12,CC(C)/C=C/c1ccc(C(=O)Nc2ccc(Cl)c(C(F)(F)F)c2)cc1 [Compound 148],+ (compound exhibited 0-25% inhibition of calcium ion influx induced by capsaicin stimulation)
13,CC(C)/C=C/c1ccc(C(=O)Nc2cccc(C#N)c2)cc1 [Compound 150],++ (compound exhibited 25-50% inhibition of calcium ion influx induced by capsaicin stimulation)
14,CC(C)/C=C/c1ccc(C(=O)Nc2ccccc2CCO)cc1 [Compound 151],+++ (compound exhibited 50-75% inhibition of calcium ion influx induced by capsaicin stimulation)
15,CC(C)/C=C/c1ccc(C(=O)Nc2ccc(C(C)C)cc2)cc1 [Compound 153],++++ (compound exhibited 75% or greater inhibition of calcium ion influx induced by capsaicin stimulation)
16,Cc1ccc(NC(=O)c2ccc(/C=C/C(C)C)cc2)c(C)c1 [Compound 156],+ (compound exhibited 0-25% inhibition of calcium ion influx induced by capsaicin stimulation)
17,CC(C)/C=C/c1ccc(C(=O)Nc2ccc3[nH]ccc3c2)cc1 [Compound 158],++ (compound exhibited 25-50% inhibition of calcium ion influx induced by capsaicin stimulation)
